Patent US20250257061A1, “COMPOSITIONS AND METHODS FOR TREATING CANCER AND REDUCING WNT MEDIATED EFFECTS” (StemSynergy Therapeutics, Inc., priority 2024, published 2025)
Like-named read-outs stand apart in the source and are kept apart here.

Key:
[1] = system: Wnt reporter (TCF/LEF1 promoter); experiment: HEK STF293 Wnt reporter (TOPFlash) luciferase assay, Steady Glo normalised to Cell Titer; format: cell-based, human
Method: All compounds were tested using the human cell line HEK STF293. This cell line carries a Wnt reporter (TCF/LEF1 promoter), which drives expression of the firefly luciferase protein. The level of Wnt activity is directly correlated with the level of luciferase activity (determined using a simple assay). Compounds that inhibit Wnt signaling by reducing luciferase activity in these two cell lines are further tested biochemically. […] Compounds were further tested in a Viability assay using Wnt-dependent HCT116 cell line. Compounds were prepared as 10 mM stocks for each compound in DMSO. Dilutions were prepared in a 96-well plate in DMSO. The stock dilutions are as follows: 10 mM, 1 mM, 100 μM, 10 μM, 100 nM, and 10 nM. Plates were sealed and stored at −20° C. […] On the first day, Wnt3a-conditioned media (1:1) were added along with diluted compounds (1:100). […] The final concentrations should therefore be 100 μM, 10 μM, 1 μM, 100 nM, 10 nM, and 1 nM. On the second day, the media was removed and 75 μL of Passive Lysis Buffer (Promega) is added to each well. The plate was shaken at 130 rpm for 15 minutes. For the Steady Glo assay, 45 μL of the lysis was removed and added to a white 96-well plate containing 45 μL/well of Steady Glo solution (Promega). For the Cell Titer assay, 25 μL of the lysis was transferred to a white 96-well plate containing 25 μL/well of Cell Titer solution (Promega). Both Steady Glo and Cell Titer assays were read with a luminescence plate reader. When determining EC50, the Steady Glo values were divided by the Cell Titer values to normalize for cell number. All compounds were tested using the human cell line HEK STF293. This cell line carries a Wnt reporter (TCF/LEF1 promoter), which drives expression of the firefly luciferase protein. The level of Wnt activity is directly correlated with the level of luciferase activity (determined using a simple assay). Compounds that inhibit Wnt signaling by reducing luciferase activity in these two cell lines are further tested biochemically. […] Compounds were further tested in a Viability assay using Wnt-dependent HCT116 cell line. Compounds were prepared as 10 mM stocks for each compound in DMSO. Dilutions were prepared in a 96-well plate in DMSO. The stock dilutions are as follows: 10 mM, 1 mM, 100 μM, 10 μM, 100 nM, and 10 nM. Plates were sealed and stored at −20° C. […] On the first day, Wnt3a-conditioned media (1:1) were added along with diluted compounds (1:100). […] The final concentrations should therefore be 100 μM, 10 μM, 1 μM, 100 nM, 10 nM, and 1 nM. On the second day, the media was removed and 75 μL of Passive Lysis Buffer (Promega) is added to each well. The plate was shaken at 130 rpm for 15 minutes. For the Steady Glo assay, 45 μL of the lysis was removed and added to a white 96-well plate containing 45 μL/well of Steady Glo solution (Promega). For the Cell Titer assay, 25 μL of the lysis was transferred to a white 96-well plate containing 25 μL/well of Cell Titer solution (Promega). Both Steady Glo and Cell Titer assays were read with a luminescence plate reader. When determining EC50, the Steady Glo values were divided by the Cell Titer values to normalize for cell number. All compounds were tested using the human cell line HEK STF293. This cell line carries a Wnt reporter (TCF/LEF1 promoter), which drives expression of the firefly luciferase protein. The level of Wnt activity is directly correlated with the level of luciferase activity (determined using a simple assay). Compounds that inhibit Wnt signaling by reducing luciferase activity in these two cell lines are further tested biochemically. […] Compounds were further tested in a Viability assay using Wnt-dependent HCT116 cell line. Compounds were prepared as 10 mM stocks for each compound in DMSO. Dilutions were prepared in a 96-well plate in DMSO. The stock dilutions are as follows: 10 mM, 1 mM, 100 μM, 10 μM, 100 nM, and 10 nM. Plates were sealed and stored at −20° C. […]

[2] = system: Wnt-dependent HCT116 cell line; experiment: Viability assay using Wnt-dependent HCT116 cell line (Cell Titer Glo); format: cell-based
Method: All compounds were tested using the human cell line HEK STF293. This cell line carries a Wnt reporter (TCF/LEF1 promoter), which drives expression of the firefly luciferase protein. The level of Wnt activity is directly correlated with the level of luciferase activity (determined using a simple assay). Compounds that inhibit Wnt signaling by reducing luciferase activity in these two cell lines are further tested biochemically. […] Compounds were further tested in a Viability assay using Wnt-dependent HCT116 cell line. HEK293 cells were seeded in a 6-well plate at approximately 8.0×10^5 cells (2 mL per well). On the first day, Wnt3a-conditioned media (1:1) and compounds (1:100) were added to the plated cells. The final concentrations of compounds were 1 μM, 500 nM, and 100 nM. Vehicle (DMSO) and a Wnt3a-conditioned media plus Vehicle samples were also prepared as controls. Lysates were collected (with non-denaturing lysis buffer) after 24 hours incubation, and protein concentrations determined by Bradford Assay. Immunoblotting with an anti-beta-catenin antibody (equivalent amounts of protein/lane for each condition) were subsequently performed to determine beta-catenin levels. HCT116 cells were seeded at 2,500 cells/well in a 96-well dish (Volume: 100 μL/well). On the second day, the 10 mM stock solution of each test compound was thawed at room temperature. Dilutions of the test compound were prepared in DMSO in a V-bottom 96-well plate. The stock compound solution, DMSO-diluted compound solutions, and DMSO were further diluted 500-fold in cell culture media, and 100 μL of the compound- or DMSO-containing cell culture media was added to each well of the cells. […] The final DMSO concentration was 0.1% in all wells. On the fifth day, 150 μL of media was removed from each well. 50 μL/well Cell Titer Glo reagent (Promega) was added to each well. The plate was shaken at 130 rpm for 15 minutes at room temperature, and the cell viability was determined using a luminescence plate reader. All compounds were tested using the human cell line HEK STF293. This cell line carries a Wnt reporter (TCF/LEF1 promoter), which drives expression of the firefly luciferase protein. The level of Wnt activity is directly correlated with the level of luciferase activity (determined using a simple assay). Compounds that inhibit Wnt signaling by reducing luciferase activity in these two cell lines are further tested biochemically. […] Compounds were further tested in a Viability assay using Wnt-dependent HCT116 cell line. HEK293 cells were seeded in a 6-well plate at approximately 8.0×10^5 cells (2 mL per well). On the first day, Wnt3a-conditioned media (1:1) and compounds (1:100) were added to the plated cells. The final concentrations of compounds were 1 μM, 500 nM, and 100 nM. Vehicle (DMSO) and a Wnt3a-conditioned media plus Vehicle samples were also prepared as controls. Lysates were collected (with non-denaturing lysis buffer) after 24 hours incubation, and protein concentrations determined by Bradford Assay. Immunoblotting with an anti-beta-catenin antibody (equivalent amounts of protein/lane for each condition) were subsequently performed to determine beta-catenin levels. HCT116 cells were seeded at 2,500 cells/well in a 96-well dish (Volume: 100 μL/well). On the second day, the 10 mM stock solution of each test compound was thawed at room temperature. Dilutions of the test compound were prepared in DMSO in a V-bottom 96-well plate. The stock compound solution, DMSO-diluted compound solutions, and DMSO were further diluted 500-fold in cell culture media, and 100 μL of the compound- or DMSO-containing cell culture media was added to each well of the cells. […] The final DMSO concentration was 0.1% in all wells. On the fifth day, 150 μL of media was removed from each well. 50 μL/well Cell Titer Glo reagent (Promega) was added to each well. The plate was shaken at 130 rpm for 15 minutes at room temperature, and the cell viability was determined using a luminescence plate reader. […]

[3] = Homo sapiens, STF/293, read-out: TOPFlash IC50 category
[4] = Homo sapiens, HCT-116, read-out: Viability IC50 category
[5] = Homo sapiens, STF/293, Examples for Formulae (IV), (V), (VI), and (VII), HEK STF293 cells, Wnt3a-conditioned media, read-out: TOPFlash IC50 category
[6] = Homo sapiens, HCT-116, Examples for Formulae (IV), (V), (VI), and (VII), HCT116 cells, read-out: Viability IC50 category
[7] = Examples for Formulae (IV), (V), (VI), and (VII), HEK STF293 cells, Wnt3a-conditioned media, read-out: TOPFlash IC50 category
[8] = Examples for Formulae (IV), (V), (VI), and (VII), HCT116 cells, read-out: Viability IC50 category

Row | Compound | IC50 [1, 3] [nM] | IC50 [2, 4] [nM] | also measured
1 | Cn1nc(C(=O)Nc2nc(-c3ccccn3)cs2)c(-c2ccc(F)cc2)n1 [Example 19] | – | – | IC50 ([1]; Homo sapiens, STF/293, Examples for Formulae (I), (II), and (III), HEK STF293 cells, Wnt3a-conditioned media, read-out: TOPFlash IC50 category): 200 to 500 nM; IC50 ([2]; Homo sapiens, HCT-116, Examples for Formulae (I), (II), and (III), HCT116 cells, read-out: Viability IC50 category): 200 to 500 nM
2 | COc1ccccc1-c1noc(C)c1C(=O)Nc1nc(-c2ccccn2)cs1 [Example 21] | 1000 to 10000 | 1000 to 10000 | –
3 | COc1ncccc1-c1noc(C)c1C(=O)Nc1nc(-c2ccccn2)cs1 [Example 22] | 200 to 500 | 200 to 500 | –
4 | CC(C)(C)c1nc(-c2ccc(F)cc2)c(C(=O)Nc2nc(-c3ccccn3)cs2)o1 [Example 23] | 200 to 500 | 200 to 500 | –
5 | Cc1onc(-c2ccc(C(F)(F)F)cc2)c1C(=O)Nc1nc(-c2ccccn2)cs1 [Example 24] | < 200 | < 200 | –
6 | Cc1onc(-c2ccc(OC(F)(F)F)cc2)c1C(=O)Nc1nc(-c2ccccn2)cs1 [Example 26] | – | – | IC50 [1, 5]: 200 to 500 nM; IC50 [2, 6]: < 200 nM
7 | Cc1onc(-c2ccccc2)c1C(=O)Nc1nc(-c2ccccn2)cs1 [Example 27] | 200 to 500 | 200 to 500 | –
8 | Cc1onc(-c2ccccc2Cl)c1C(=O)Nc1nc(-c2ccccn2)cs1 [Example 28] | 200 to 500 | 200 to 500 | –
9 | Cc1onc(-c2c(Cl)cccc2Cl)c1C(=O)Nc1nc(-c2ccccn2)cs1 [Example 29] | < 200 | < 200 | –
10 | Cc1nc(-c2ccc(C#N)cc2)c(C(=O)Nc2nc(-c3ccccn3)cs2)o1 [Example 30] | – | – | IC50 [1, 7]: < 200 nM; IC50 [2, 8]: 200 to 500 nM
11 | O=C(Nc1nc(-c2ccccn2)cs1)c1oc(C2CC2)nc1-c1ccc(F)cc1 [Example 31] | – | – | IC50 [1, 5]: < 200 nM; IC50 [2, 6]: 200 to 500 nM
12 | O=C(Nc1nc(-c2ccccn2)cs1)c1oc(C(F)F)nc1-c1ccc(F)cc1 [Example 33] | – | – | IC50 [1, 7]: < 200 nM; IC50 [2, 8]: 200 to 500 nM
13 | CN(C(=O)c1ccc(Cl)cc1)c1ncc(C(=O)Nc2nc(-c3ccccn3)cs2)o1 [Example 34] | – | – | IC50 [1, 7]: 1000 to 10000 nM; IC50 [2, 8]: 1000 to 10000 nM
14 | CN(C(=O)c1ccc(C(F)(F)F)cc1)c1ncc(C(=O)Nc2nc(-c3ccccn3)cs2)o1 [Example 35] | – | – | IC50 [1, 7]: 500 to 1000 nM; IC50 [2, 8]: 1000 to 10000 nM
